Converted amounts (≈) assume the structure as drawn. “And” between values parts separate entries of the source, which are not always exact repeats. Equal entries are not always repeated. Where two headings read alike, the source gives them in different places.
How the values were obtained:
[1] = DPPH radical scavenging activity; details: for AA (mg/gm) Avg (DPPH activity) / AA (mg/gm) (DPPH activity), single trial: Conc 20 µg/mL; for AA (mg/gm) Avg (DPPH activity): average of trials A-C; for AA (mg/gm) (DPPH activity), single trial: single trials A, B, C; for DPPH IC50: mean ± SD, triplicate, 30 min, 517 nm
Description: The ability of the samples to scavenge DPPH radical was determined by [Wang, Chen & Hou (2019)] method with slight modification ([Wang, Chen & Hou, 2019]). […] Samples were incubated at ambient temperature under dark conditions for 30 min and the absorbance wavelength was measured at 517 nm against a blank sample. DPPH^• solution and ascorbic acid were used as blank samples and positive control, respectively.
where Ab and As are the absorbance values of the blank and test samples, respectively.

[2] = ABTS radical cation decolorization assay; details: for AA (mg/gm) Avg (ABTS+ activity) / AA (mg/gm) (ABTS+ activity), single trial: Conc. 20 µg/mL; for AA (mg/gm) Avg (ABTS+ activity): average of trials A-C; for AA (mg/gm) (ABTS+ activity), single trial: single trials A, B, C; for ABTS^+ IC50: mean ± SD, triplicate, 30 min, 734 nm
Description: ABTS radical cation decolorization assay was performed to measure the total antioxidant activity of the samples by obeying the previously described method ([Re et al., 1999]). In brief, ABTS^•+ radicals were generated by treating 7 mM ABTS^+ aqueous solution with 2.4 mM potassium persulfate for 12-16 h at room temperature in the dark. Prior to use, this solution was diluted with ethanol (approx. 1:89 v/v) and equilibrated to […] absorbance at 734 nm to obtain the working solution. Afterward, a 1.0 mL of working solution was reacted with 20 µL (1 mg mL^−1) samples and incubated for 30 min. After incubation, samples were scanned at 734 nm absorbance wavelength and the percentage of inhibition was determined. Ascorbic acid (AA) was applied reference standard.

[3] = target: T1, butyrylcholinesterase (BChE) (Homo sapiens, UniProt P06276); experiment: biochemical; details: for Gal (mg/gm) Avg (BChE inhibitory activity) / Abs (BChE inhibitory activity) / Gal (mg/gm) (BChE inhibitory activity), single trial: Conc 10 µg/mL; for Gal (mg/gm) Avg (BChE inhibitory activity): average of trials A-C; for Abs (BChE inhibitory activity) / Gal (mg/gm) (BChE inhibitory activity), single trial: single trials A, B, C;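 as to Abs (BChE inhibitory activity): absorbance read at 405 nm against blank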
T1 construct: Crude enzymes, AChE (acetylcholinesterase) and BChE (butyrylcholinesterase) were collected from brain of mice and blood of humans, respectively; from tissue; host or cells: human blood
Description: (§1) The acetylcholinesterase (AChE) and butyrylcholinesterase (BChE) were obtained from the mouse brain and human blood at the Pharmacology Department of King Saud University, SaudiArabia.
(§2) The AChE and BChE assays were tested by using two chemical substrates acetylthiocholine iodide and S-butyrylthiochoilne iodide, respectively. […] Afterwards, […] (1 mM, 62 µL), sodium phosphate buffer (50 mM, 25 µL, pH 8) provided with bovine albumin serum (0.1%) and […] (0.5 mm, 13 µL) were added separately into each reaction mixture. […] All the experiments were performed in triplicates to avoid error and the results were estimated through the two-tailed Student’s t-test at a p < 0.05 significance. The inhibition percentage of cholinesterase activity was calculated using the following equation I%=AC−As/AC×100
(§3) where Ac and As is the absorbance of control and sample or reference compound. IC50 values could be determined from the dose response curve obtained by plotting the percent inhibition values against test concentrations of each compound.

[4] = target: T2, acetylcholinesterase (AChE) (Mus musculus, UniProt P21836); experiment: biochemical; details: for Donep (mg/gm) Avg (AChE inhibitory activity) / Abs (AChE inhibitory activity) / Donep (mg/gm) (AChE inhibitory activity), single trial: Conc 10 µg/mL; for Donep (mg/gm) Avg (AChE inhibitory activity): average of trials A-C; for Abs (AChE inhibitory activity) / Donep (mg/gm) (AChE inhibitory activity), single trial: single trials A, B, C
T2 construct: Crude enzymes, AChE (acetylcholinesterase) and BChE (butyrylcholinesterase) were collected from brain of mice and blood of humans, respectively; from tissue; host or cells: mouse brain
Description: as §1, §2, §3

[5] = test system: Escherichia coli (ATCC 25922); experiment: MIC, broth microdilution with resazurin; assay type: cell-based; details: 24 h at 37 °C; for MIC: Escherichia coli, ATCC25922, 24 h
Description: (§4) The acetylcholinesterase (AChE) and butyrylcholinesterase (BChE) were obtained from the mouse brain and human blood at the Pharmacology Department of King Saud University, SaudiArabia. Escherichia coli (ATCC 25922), Pseudomonas aeruginosa (ATCC 27853), and Staphylococcus aureus were provided by Microbiology Department, King Khaled University Hospital (KKUH), Saudi Arabia.
(§5) Minimum inhibitory concentration (MIC) assay was performed to evaluate the in vitro antimicrobial activities using a broth microdilution method ([Nascente, 2009]). Three bacterial strains Escherichia coli (ATCC 25922), Pseudomonas aeruginosa (ATCC 27853), and Staphylococcus aureus were applied to examine the antimicrobial activity of samples. Briefly, the microbial strains were transferred to Muller Hinton agar (MHB, HiMedia, India) and 24-h colonies were individually suspended in 10 mL Muller Hinton broth (MHB, HiMedia, India). The suspension of each microbial strain was standardized at 575 nm wavelength using a spectrophotometer (CRAIC Technologies, CA, USA), to match the McFarland scale (1.5 × 10^8 CFU mL^−1). The standardized suspension was further diluted to obtain a final concentration of 5 × 10^5 CFU mL^−1. The samples prepared in DMSO at 1 mgmL^−1 and different concentrations (30–500 µgmL^−1) were attained after dilution in Mueller Hinton broth. Three inoculated wells containing different concentrations of DMSO (4% to 1% range), one non-inoculated well without an antimicrobial agent and negative controls were included. The inoculated well was used to monitor whether the broth was sufficient for the microbial strain to grow. Chloramphenicol ([…]) was applied as a positive control. The sample treated 96-well microplates were sealed and incubated for 24 h at 37 °C After a 1-day incubation, […] of 0.02% resazurin solution was added into each well to examine the viability of the microbial strain ([Palomino et al., 2002]). The minimum used concentration of test sample that inhibited the microorganism growth (MIC value) was calculated as the minimum concentration of the test samples required to prevent the color change of the resazurin solution. All the assays were performed in triplicates.

Staphylococcus aureus = experiment: MIC, broth microdilution with resazurin; assay type: cell-based; details: 24 h at 37 °C; for MIC: Staphylococcus aureus, 24 h
Description: as §4, §5

[6] = test system: Pseudomonas aeruginosa (ATCC 27853); experiment: MIC, broth microdilution with resazurin; assay type: cell-based; details: 24 h at 37 °C; for MIC: Pseudomonas aeruginosa, ATCC27853, 24 h
Description: as §4, §5

[7] = crude enzyme from human blood, mean ± SD, triplicate, read-out: BChE IC50 (converted)
[8] = crude enzyme from mouse brain, mean ± SD, triplicate, read-out: AChE IC50 (converted)
[9] = E. coli, read-out: Minimum inhibitory concentration
[10] = S. aureus, read-out: Minimum inhibitory concentration
[11] = P. aeruginosa, read-out: Minimum inhibitory concentration

T1 sequence (P06276 29-602): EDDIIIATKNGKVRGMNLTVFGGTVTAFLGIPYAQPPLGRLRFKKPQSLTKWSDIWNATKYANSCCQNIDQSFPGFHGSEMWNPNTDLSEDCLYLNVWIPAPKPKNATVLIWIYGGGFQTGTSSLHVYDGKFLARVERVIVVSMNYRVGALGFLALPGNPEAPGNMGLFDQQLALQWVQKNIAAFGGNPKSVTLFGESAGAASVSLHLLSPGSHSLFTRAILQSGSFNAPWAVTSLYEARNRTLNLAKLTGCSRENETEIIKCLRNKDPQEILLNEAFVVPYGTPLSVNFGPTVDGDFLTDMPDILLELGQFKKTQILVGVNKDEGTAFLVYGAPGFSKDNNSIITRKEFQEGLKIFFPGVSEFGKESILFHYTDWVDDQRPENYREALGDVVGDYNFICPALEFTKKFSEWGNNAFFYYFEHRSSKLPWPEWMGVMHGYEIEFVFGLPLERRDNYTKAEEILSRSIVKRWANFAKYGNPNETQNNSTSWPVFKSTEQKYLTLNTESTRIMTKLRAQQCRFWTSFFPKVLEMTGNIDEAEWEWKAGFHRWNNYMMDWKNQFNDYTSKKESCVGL
T2 sequence (P21836 32-614): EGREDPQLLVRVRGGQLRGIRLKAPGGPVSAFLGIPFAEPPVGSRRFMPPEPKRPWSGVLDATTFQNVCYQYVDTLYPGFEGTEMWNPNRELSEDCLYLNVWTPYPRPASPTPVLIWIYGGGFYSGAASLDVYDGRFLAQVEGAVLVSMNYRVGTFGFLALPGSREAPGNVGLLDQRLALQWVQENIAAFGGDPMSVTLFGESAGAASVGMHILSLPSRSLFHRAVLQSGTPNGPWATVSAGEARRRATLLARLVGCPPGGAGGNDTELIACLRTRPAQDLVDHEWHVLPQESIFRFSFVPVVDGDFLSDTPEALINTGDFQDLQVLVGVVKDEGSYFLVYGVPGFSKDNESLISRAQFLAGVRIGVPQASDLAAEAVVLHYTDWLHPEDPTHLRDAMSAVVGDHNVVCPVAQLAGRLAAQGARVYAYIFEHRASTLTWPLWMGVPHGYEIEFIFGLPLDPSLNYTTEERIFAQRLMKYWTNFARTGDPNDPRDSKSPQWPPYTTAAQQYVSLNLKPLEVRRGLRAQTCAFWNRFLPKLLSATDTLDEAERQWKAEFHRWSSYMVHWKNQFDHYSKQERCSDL

| Structure (SMILES) | AA (mg/gm) Avg (DPPH activity) [1] | AA (mg/gm) (DPPH activity), single trial [1] | DPPH IC50 [1] | AA (mg/gm) Avg (ABTS+ activity) [2] | AA (mg/gm) (ABTS+ activity), single trial [2] | ABTS^+ IC50 [2] | Gal (mg/gm) Avg (BChE inhibitory activity) [3] | Abs (BChE inhibitory activity) [3] | Gal (mg/gm) (BChE inhibitory activity), single trial [3] | IC50 [3, 7] | Donep (mg/gm) Avg (AChE inhibitory activity) [4] | Abs (AChE inhibitory activity) [4] | Donep (mg/gm) (AChE inhibitory activity), single trial [4] | IC50 [4, 8] | Minimum inhibitory concentration ([5]; E. coli) | MIC [5, 9] | Minimum inhibitory concentration (Staphylococcus aureus; S. aureus) | MIC (Staphylococcus aureus; [10]) | Minimum inhibitory concentration ([6]; P. aeruginosa) | MIC [6, 11] | further results |
| --- | --- | --- | --- | --- | --- | --- | --- | --- | --- | --- | --- | --- | --- | --- | --- | --- | --- | --- | --- | --- | --- |
| O=C1O[C@H]([C@@H](O)CO)C(O)=C1O [Ascorbic acid, ascorbic acid, reference compound] | 3.12 mg/gm | 3.30 mg/gm and 2.84 mg/gm and 3.22 mg/gm | 3.12 ± 0.24^a µgmL^−1 | 4.45 mg/gm | 4.52 mg/gm and 4.25 mg/gm and 4.58 mg/gm | 4.45 ± 0.17^a µgmL^−1 |  |  |  |  |  |  |  |  |  |  |  |  |  |  |  |
| COc1ccc2c3c1O[C@H]1C[C@@H](O)C=C[C@@]31CCN(C)C2 [Galantamine, reference compound] |  |  |  |  |  |  | 10.27 mg/gm | 0.345 and 0.348 and 0.352 | 10.78 mg/gm and 9.29 mg/gm and 10.80 mg/gm |  |  |  |  |  |  |  |  |  |  |  |  |
| CCCCCCCCCCCCCCCCCCCCCCCCCCCCCCCC(=O)O[C@H]1C[C@H](O)[C@]2(C)C3=CC=C4[C@@H]5CC(CO)(C(=O)O)CC[C@]5(C)CC[C@@]4(C)[C@]3(C)CCC2C1(C)C (stereo partly drawn) [Compound 3, 1α,3β,30-Trihydroxy-29-carboxy-olean-9(11), 12-diene-3-dotriacontanoate] | 4.67 mg/gm | 4.89 mg/gm and 4.35 mg/gm and 4.78 mg/gm | 4.67 ± 0.28^b µgmL^−1 | 6.42 mg/gm | 6.56 mg/gm and 6.13 mg/gm and 6.58 mg/gm | 6.42 ± 0.25^b µgmL^−1 | 32.68 mg/gm | 0.285 and 0.286 and 0.287 | 32.88 mg/gm and 32.25 mg/gm and 32.92 mg/gm | 34.4 µM | 38.13 mg/gm | 0.289 and 0.294 and 0.315 | 38.16 mg/gm and 38.05 mg/gm and 38.20 mg/gm | 40.2 µM | ≤150 µg/mL | 125 to 150 µg/mL (≈ 132 to 158 µM) | ≤125 µg/mL | 125 to 150 µg/mL (≈ 132 to 158 µM) | ≤125 µg/mL | 125 to 150 µg/mL (≈ 132 to 158 µM) | Minimum inhibitory concentration ([5]; E. coli, listed as compound 3): ≤ 150 µg/mL; Minimum inhibitory concentration (Staphylococcus aureus; S. aureus, listed as compound 3): ≤ 125 µg/mL; Minimum inhibitory concentration ([6]; P. aeruginosa, listed as compound 3): ≤ 125 µg/mL |
| CC[C@@H](/C=C/[C@@H](C)C1CCC2C3CCC4C[C@@H](O)CC[C@]4(C)C3CC[C@@]21C)C(C)C (stereo partly drawn) [Compound 2, stigmasta-22-ene-3-β-ol] | 7.60 mg/gm | 7.84 mg/gm and 7.12 mg/gm and 7.86 mg/gm | 7.60 ± 0.42^c µgmL^−1 | 8.18 mg/gm | 8.25 mg/gm and 8.02 mg/gm and 8.28 mg/gm | 8.18 ± 0.13^c µgmL^−1 | 49.52 mg/gm | 0.355 and 0.365 and 0.358 | 49.70 mg/gm and 49.12 mg/gm and 49.74 mg/gm |  | 68.65 mg/gm | 0.312 and 0.315 and 0.317 | 68.94 mg/gm and 68.01 mg/gm and 69.02 mg/gm |  | ≤125 µg/mL |  | ≤150 µg/mL |  | ≤250 µg/mL |  | IC50 [3]: 119 µM; IC50 [4]: 166 µM; MIC ([5]; read-out: Minimum inhibitory concentration, E. coli): ≤ 125 µg/mL; MIC (Staphylococcus aureus; read-out: Minimum inhibitory concentration, S. aureus): ≤ 150 µg/mL; MIC ([6]; read-out: Minimum inhibitory concentration, P. aeruginosa): ≤ 250 µg/mL |
| O=C(N[C@H](CO)[C@H](O)c1ccc([N+](=O)[O-])cc1)C(Cl)Cl [Chloramphenicol, reference compound] |  |  |  |  |  |  |  |  |  |  |  |  |  |  |  | ≤ 40 µg/mL |  | ≤ 40 µg/mL |  | ≤ 40 µg/mL |  |
| CCCCCCCCCCCCCCCCCCCCC(O)C(=O)O (stereo not drawn) [Compound 1, 2-hydroxydocosanoic acid] | 10.82 mg/gm | 10.98 mg/gm and 10.54 mg/gm and 10.96 mg/gm | 10.82 ± 0.24^d µgmL^−1 | 11.45 mg/gm | 11.64 mg/gm and 11.02 mg/gm and 11.70 mg/gm | 11.45 ± 0.37^d µgmL^−1 | 137.76 mg/gm | 0.375 and 0.379 and 0.354 | 138.12 mg/gm and 136.98 mg/gm and 138.18 mg/gm | 386 µM | 121.97 mg/gm | 0.342 and 0.328 and 0.345 | 122.89 mg/gm and 120.10 mg/gm and 122.92 mg/gm | 342 µM |  | ≤ 500 µg/mL |  | ≤ 1000 µg/mL |  | ≤ 1000 µg/mL |  |

— publication PMC8916034, “Abubidentin A, New Oleanane-type Triterpene Ester from Abutilon bidentatum and its antioxidant, cholinesterase and antimicrobial activities” (PeerJ, 2022)
